pIC50: −log10 of the molar value.
What was measured:
[1] = tested on: HexA DNA fragment; test: DNA footprinting; assay type: binding; details: overnight incubation of ligand-DNA complexes
Protocol: (§1) The DNA sequence selectivity profile of selected molecules was investigated using a modification of the previously established DNA footprinting assay ^[32]. Following an overnight incubation of the ligand-DNA complexes, the mixture was mixed with strand separation buffer containing 10 mM EDTA, 10 mM NaOH, 0.1% bromophenol blue, 80% formamide and incubated at 100° C. for 3 min. The mixture was then immediately cooled on ice and run on an 8% denaturing gel. […] 93 (solid black line) also interacts with two further sites. The PBD dimer Talirine (green) illustrates a different binding pattern to 73, 76, 81, 88 and 93. Strong DNA footprints are represented by solid lines and weaker footprints are represented by hatched lines. […] Strong DNA footprints are represented by solid lines, and weaker footprints are represented by hatched lines
(§2) Footprinting reactions were performed as previously described ^[36] using the DNA fragments HexA and HexB, which together contain all 64 symmetrical hexanucleotide sequences^[6], and MS1 that contains all possible […] tetranucleotide sequences ^[38]. The DNA fragments were obtained by cutting the parent plasmids with HindIII and SacI (for HexA and MS1) or EcoRI and PstI (for HexB), and were labelled at the 3′-end of the HindIII or EcoRI sites with [α-^32P]dATP using reverse transcriptase or exo-Klenow fragment. After gel purification, the radiolabelled DNA was dissolved in 10 mM Tris-HCl pH 7.5 containing 0.1 mM EDTA, at a concentration of about 10 c.p.s per μL as determined on a hand held Geiger counter. 1.5 μL of radiolabelled DNA was mixed with 1.5 μL ligand that had been freshly diluted in 10 mM Tris-HCl pH 7.5, containing 10 mM NaCl. The complexes were left to equilibrate for at least 12 hours before digesting with 2 μL DNase I (final concentration about 0.01 units/mL). The reactions were stopped after 1 minute by adding 4 μL of formamide containing 10 mM EDTA and bromophenol blue (0.1% w/v). The samples were then heated at 100° C. for 3 minutes before loading onto 8% denaturing polyacrylamide gels containing 8 M urea. Gels were fixed in 10% acetic acid, transferred to 3MM paper, dried and exposed to a phosphor screen overnight, before analysing with a Typhoon phosphorimager

[2] = tested on: MS1 DNA fragment; test: DNA footprinting; assay type: binding; details: overnight incubation of ligand-DNA complexes
Protocol: as §1, §2

[3] = tested on: MCF-7; test: In vitro cytotoxicity of free payloads, MTT assay; assay type: cell-based; details: Homo sapiens, MCF7; 72 hour incubation
Protocol: (§3) The in vitro cytotoxicity of compounds 73, 76, 81, 88 and 93 were evaluated in the JIMT-1, MCF-7, MDA-MB-453 and SK-BR-3 (all breast cancer) cell lines using the standard MIT assay for a 72 hour incubation period (Table 3).
(§4) Tumor cell lines were maintained in RPMI1640 medium supplemented with 10% heat-inactivated fetal bovine serum, 2 mM L-glutamine and 1 mM sodium pyruvate. 1800 cells per well were seeded in a volume of 180 μl in a 96-well flat bottom polystyrene plate. The cells were allowed to adhere overnight at 37° C. in a CO2 incubator. Ligands were initially formulated in DMSO, and stocks stored at −80° C. They were then further formulated at lox concentration in RPMI1640 medium. 20 ul of diluted samples were added into each treatment well. On each plate, blank wells with no cells, and untreated wells containing cells, were included. Plates were then cultured at 37° C. in a CO2 incubator for 72 hrs. Cytotoxicity was evaluated using a tetrazolium salt-based assay, the MIT assay. After 72 hours, the supernatant was removed from each well and 200 μl of a sterile filtered 500 μg/ml MTT solution in water added to each well. The plates were then incubated at 37° C. in a CO2 incubator for 4 hrs. The supernatant was then removed and the formazan crystals formed solubilized by adding 15(411 of DMSO to each well. The plate was then read on a plate reader at 540 nm, and percentage cell survival calculated as follows: ((mean absorbance treated wells at concentration x−mean absorbance blank wells)÷(mean absorbance untreated wells at concentration x−mean absorbance blank wells))×100. Data were plotted as concentration in nM vs. % cell survival in Microsoft Excel, and IC50 values (concentration where cell survival is reduced by a half) were determined from the graph.

[4] = tested on: MDA-MB-453; test: In vitro cytotoxicity of free payloads, MTT assay; assay type: cell-based; details: Homo sapiens, 72 hour incubation
Protocol: as §3, §4

[5] = tested on: JIMT-1; test: In vitro cytotoxicity of free payloads, MTT assay; assay type: cell-based; details: Homo sapiens, 72 hour incubation
Protocol: as §3, §4

[6] = tested on: SK-BR-3; test: In vitro cytotoxicity of free payloads, MTT assay; assay type: cell-based; details: Homo sapiens, 72 hour incubation
Protocol: as §3, §4

Compound | number of preferred binding sites observed in HexA [1] | number of preferred binding sites observed in MS1 [2] | pIC50 [3] | pIC50 [4] | pIC50 [5] | pIC50 [6] | further sequences bound in MS1 not occupied by 73, 76, 81 and 88 [2]
COC(=O)c1ccc(NC(=O)c2cc(-c3ccc(NC(=O)c4cc(NC(=O)CCCOc5cc6c(cc5OC)C(=O)N5CCCC[C@H]5C=N6)cn4C)cc3)cn2C)cc1 [Compound 81, Methyl (S)-4-(4-(4-(4-(4-((2-methoxy-12-oxo-6a,7,8,9,10,12-hexahydrobenzo[e]pyrido[1,2-a][1,4]diazepin-3-yl)oxy)butanamido)-1-methyl-1H-pyrrole-2-carboxamido)phenyl)-1-methyl-1H-pyrrole-2-carboxamido)benzoate] | five | six | 8.85 | 9.38 | 9.30 | 9.48 | –
COc1cc2c(cc1OCCCC(=O)Nc1cc(C(=O)Nc3ccc(-c4cc(C(=O)Nc5ccccc5)n(C)c4)cc3)n(C)c1)N=C[C@@H]1CCCCN1C2=O [Compound 73, (S)-4-(4-((2-Methoxy-12-oxo-6a,7,8,9,10,12-hexahydrobenzo[e]pyrido[1,2-a][1,4]diazepin-3-yl)oxy)butanamido)-1-methyl-N-(4-(1-methyl-5-(phenylcarbamoyl)-1H-pyrrol-3-yl)phenyl)-1H-pyrrole-2-carboxamide] | five | six | 9.38 | 9.70 | 9.48 | 9.57 | –
COc1cc2c(cc1OCCCC(=O)Nc1cc(C(=O)Nc3ccc(-c4cn(C)c(C(=O)Nc5ccccc5)n4)cc3)n(C)c1)N=C[C@@H]1CCCCN1C2=O [Compound 88, (S)-4-(4-(4-(4-((2-Methoxy-12-oxo-6a,7,8,9,10,12-hexahydrobenzo[e]pyrido[1,2-a][1,4]diazepin-3-yl)oxy)butanamido)-1-methyl-1H-pyrrole-2-carboxamido)phenyl)-1-methyl-N-phenyl-1H-imidazole-2-carboxamide] | five | six | 9.22 | 9.89 | 9.43 | 10.22 | –
COc1cc2c(cc1OCCCC(=O)Nc1cc(C(=O)Nc3ccc(-c4cc(C(=O)Nc5ccc(C)cc5)n(C)c4)cc3)n(C)c1)N=C[C@@H]1CCCCN1C2=O [Compound 76, (S)-4-(4-((2-Methoxy-12-oxo-6a,7,8,9,10,12-hexahydrobenzo[e]pyrido[1,2-a][1,4]diazepin-3-yl)oxy)butanamido)-1-methyl-N-(4-(1-methyl-5-(p-tolylcarbamoyl)-1H-pyrrol-3-yl)phenyl)-1H-pyrrole-2-carboxamide] | five | six | 9.28 | 9.72 | 9.37 | 9.54 | –
COc1cc2c(cc1OCCCC(=O)Nc1cn(C)c(C(=O)Nc3ccc(-c4cc(C(=O)Nc5ccccc5)n(C)c4)cc3)n1)N=C[C@@H]1CCCCN1C2=O [Compound 93, (S)-4-(4-((2-Methoxy-12-oxo-6a,7,8,9,10,12-hexahydrobenzo[e]pyrido[1,2-a][1,4]diazepin-3-yl)oxy)butanamido)-1-methyl-N-(4-(1-methyl-5-(phenylcarbamoyl)-1H-pyrrol-3-yl)phenyl)-1H-imidazole-2-carboxamide] | – | – | 8.70 | 9.74 | 9.43 | 10.05 | two
